The record followed here is patent US11332472B2, “Substituted piperidines as inhibitors of ubiquitin specific protease 7” (LES LABORATOIRES SERVIER, priority 2017, dated 2022).

SMILES strings stand for the structures.

The target in this assay is T1, USP7 (Homo sapiens, UniProt Q93009, C315A).
T1 construct: 0.25 nM His-His-USP7 (aa208-560, [C315A]) was incubated with compound; His-His (N)
T1 sequence (Q93009 208-560 C315A): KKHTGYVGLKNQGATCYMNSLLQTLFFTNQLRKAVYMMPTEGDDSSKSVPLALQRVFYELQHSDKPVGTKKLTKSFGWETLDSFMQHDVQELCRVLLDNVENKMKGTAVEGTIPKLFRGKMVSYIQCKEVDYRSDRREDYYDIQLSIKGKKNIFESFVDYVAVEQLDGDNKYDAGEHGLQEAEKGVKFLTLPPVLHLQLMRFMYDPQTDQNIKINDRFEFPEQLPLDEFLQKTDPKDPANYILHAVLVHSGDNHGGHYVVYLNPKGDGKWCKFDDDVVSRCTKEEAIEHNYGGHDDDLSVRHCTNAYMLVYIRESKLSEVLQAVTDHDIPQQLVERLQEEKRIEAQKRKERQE
The assay is described as follows: Inhibition of USP7 by Fluorescence Intensity (FLINT) readings, Ubiquitin-Rhodamine-110 substrate. The class given is biochemical. Particulars: 0.25 nM His-His-USP7 (aa208-560, [C315A]); compound 60 minutes at 30° C.; 500 nM Ubiquitin-Rhodamine substrate; 11-point curves. The method, then: USP7 activity was measured using Rhodamine-110 c-terminal labelled Ubiquitin as a substrate (Viva Biosciences). Incubation with USP7 results in the release of Rhodamine-110 leading to an increase in fluorescence which can be used in the continuous measurement of USP7 activity.
The USP7 reactions were performed in a 50 μL volume, in 384 well black solid low binding plates (Corning #3575). The reaction buffer consisted of 100 mM Bicine pH 8.0, 0.01% TritonX 100, 1 mM TCEP, and 10% DMSO.
0.25 nM His-His-USP7 (aa208-560, [C315A]) was incubated with compound (final concentration 10% DMSO) for 60 minutes at 30° C. The reaction was then initiated by the addition of 500 nM Ubiquitin-Rhodamine-10 substrate and the plate read every 3 minutes for 21 minutes to measure the release of Rhodamine-110. Fluorescence Intensity (FLINT) readings were measured using a Biomek Neo plate reader (Ex. 485 nm. Em. 535 nm).
The inhibition of increasing doses of compound was expressed as a percentage reduction in kinetic rate compared to the kinetic rates established between ‘DMSO only’ and ‘total inhibition’ controls (no USP7). The inhibitory concentrations that gave a 50% reduction in kinetic rate (IC50) were determined, from 11-point dose response curves, in XL-Fit using a 4-Parameter Logistic Model (Sigmoidal Dose-Response Model).
The term IC50 denotes the concentration that gives 50% inhibition. Higher therefore signals weaker potency. In turn, `COc1ccc(-n2ccc3c(=O)n(CC4(O)CCN(C(=O)C5CCCN5c5ccccc5)CC4)cnc32)cc1` (centres unmarked) [Example 11, 3-[[4-hydroxy-1-(1-phenylpyrrolidine-2-carbonyl)-4-piperidyl]methyl]-7-(4-methoxyphenyl)pyrrolo[2,9-d]pyrimidin-4-one] came in with an IC50 of 2.57 µM.
The same measure for `COc1ccc(-n2ccc3c(=O)n(CC4(O)CCN(C(=O)C5CCCCN5c5ccccc5)CC4)cnc32)cc1` (centres unmarked) [Example 10, 3-[[4-hydroxy-1-(1-phenylpiperidine-2-carbonyl)-4-piperidyl]methyl]-7-(4-methoxyphenyl)pyrrolo[2,3-d]pyrimidin-4-one]: 0.425 µM; for `Cc1cc([C@@H]2CC(F)(F)CC[C@H]2C(=O)N2CCC(O)(Cn3cnc4c(-c5ccccc5)scc4c3=O)CC2)cs1` (relative stereo) [Example 90, 3-[[1-[trans-4,4-difluoro-2-(S-methyl-3-thienyl)cyclohexanecarbonyl]-4-hydroxy-4-piperidyl]methyl]-7-phenyl-thieno[3,4-d]pyrimidin-4-one]: 2.92 µM; for `O=C([C@@H]1CCCC[C@H]1c1ccccc1)N1CCC(O)(Cn2cnc3cccnc3c2=O)CC1` (relative stereo) [Example 93, 3-[[4-hydroxy-1-(trans-2-phenylcyclohexanecarbonyl)-4-piperidyl]methyl]pyrido[3,2-d]pyrimidin-4-one]: 0.171 µM.
In turn, `O=C(CC1CCCO1)Nc1ccc2ncn(CC3(O)CCN(C(=O)[C@@H]4CCCC[C@H]4c4ccccc4)CC3)c(=O)c2n1` (relative stereo) [Example 106, N-[3-[[4-hydroxy-1-(trans-2-phenylcyclohexanecarbonyl)-4-piperidyl]methyl]-4-oxo-pyrido[3,2-d]pyrimidin-6-yl]-2-tetrahydrofuran-2-yl-acetamide] had an IC50 of 0.1 µM.
Regarding `Cn1ccnc1[C@@H]1CCCC[C@H]1C(=O)N1CCC(O)(Cn2cnc3c(ccn3-c3ccccc3)c2=O)CC1` (single isomer, unassigned) [Example 57, 3-[[4-hydroxy-1-[trans-2-(1-methylimidazol-2-yl)cyclohexanecarbonyl]-4-piperidyl]methyl]-7-phenyl-pyrrolo[2,3-d]pyrimidin-4-one], the IC50 turned out to be 28.4 µM.
Take `COc1ccc(-n2ccc3c(=O)n(CC4(O)CCN(C(=O)[C@@H]5CCC(F)(F)C[C@H]5c5ccoc5)CC4)cnc32)cc1` (relative stereo) [Example 74, 3-[[1-[trans-4,4-difluoro-2-(3-fury)cyclohexanecarbonyl]-4-hydroxy-4-piperidyl]methyl]-7-(4-methoxyphenyl)pyrrolo[2,3-d]pyrimidin-4-one]: the midpoint of inhibition, the IC50, lay at 2.9 µM.
`O=C([C@@H]1CCC(F)(F)C[C@H]1c1ccccc1)N1CCC(O)(Cn2cnc3c(ccn3C3CC3)c2=O)CC1` (single isomer, unassigned) [Example 116, 7-cyclopropyl-3-[[1-[trans-4,4-difluoro-2-phenyl-cyclohexanecarbonyl]-4-hydroxy-4-piperidyl]methyl]pyrrolo[2,3-d]pyrimidin-4-one]: the midpoint of inhibition, the IC50, lay at 0.205 µM.
In turn, `COc1ccc(-n2ccc3c(=O)n(CC4(O)CCN(C(=O)[C@@H]5CC(F)(F)CC[C@H]5c5ccccc5)CC4)cnc32)cc1` (single isomer, unassigned) [Example 29, 3-[[1-[trans-5,5-difluoro-2-phenyl-cyclohexanecarbonyl]-4-hydroxy-4-piperidyl]methyl]-7-(4-methoxyphenyl)pyrrolo[2,3-d]pyrimidin-4-one] registered a half-inhibitory concentration (IC50) of 0.612 µM.
For `COc1ccc(-n2ccc3c(=O)n(CC4(O)CCN(C(=O)[C@@H]5CCCC[C@H]5c5nccn5C)CC4)cnc32)cc1` (single isomer, unassigned) [Example 70, 3-[[4-hydroxy-1-[trans-2-(1-methylimidazol-2-yl)cyclohexanecarbonyl]-4-piperidyl]methyl]-7-(4-methoxyphenyl)pyrrolo[2,3-d]pyrimidin-4-one] the value was 9.23 µM.
`O=C([C@@H]1CCCC[C@H]1c1ccsc1)N1CCC(O)(Cn2cnc3cccnc3c2=O)CC1` (relative stereo) [Example 1, 3-[[4-hydroxy-1-[trans-2-(3-thienyl)cyclohexanecarbonyl]-4-piperidyl]methyl]pyrido[3,2-d]pyrimidin-4-one] gave an IC50 of 0.916 µM.
`COc1ccc(-n2ccc3c(=O)n(CC4(O)CCN(C(=O)[C@@H]5C(C)=CCC[C@H]5c5ccsc5)CC4)cnc32)cc1` (single isomer, unassigned) [Example 62, 3-[[4-hydroxy-1-[trans-2-methyl-6-(3-thienyl)cyclohex-2-ene-1-carbonyl]-4-piperidyl]methyl]-7-(4-methoxyphenyl)pyrrolo[2,3-d]pyrimidin-4-one] returned a half-inhibitory concentration (IC50) of 0.682 µM.
For `O=C(C1CCCCC1c1ccc(F)cc1)N1CCC(O)(Cn2cnc3c(ccn3-c3ccccc3)c2=O)CC1` (single isomer, unassigned) [Example 42, 3-[[1-[(trans-2-(4-fluorophenyl)cyclohexanecarbonyl]-4-hydroxy-4-piperidyl]methyl]-7-phenyl-pyrrolo[2,3-d]pyrimidin-4-one] the value was 1.59 µM; for `O=C(Cc1cccc(O)c1)Nc1ccc2ncn(CC3(O)CCN(C(=O)[C@@H]4CCCC[C@H]4c4ccccc4)CC3)c(=O)c2n1` (relative stereo) [Example 104, 2-(3-hydroxyphenyl)-N-[3-[[4-hydroxy-1-(trans-2-phenylcyclohexanecarbonyl)-4-piperidyl]methyl]-4-oxo-pyrido[3,2-d]pyrimidin-6-yl]acetamide], 0.0217 µM; for `Cn1ccc2c(=O)n(CC3(O)CCN(C(=O)[C@@H]4CCC(F)(F)C[C@H]4c4ccccc4)CC3)cnc21` (single isomer, unassigned) [Example 112, 3-[[1-[trans-4,4-difluoro-2-phenyl-cyclohexanecarbonyl]-4-hydroxy-4-piperidyl]methyl]-7-methyl-pyrrolo[2,3-d]pyrimidin-4-one], 0.471 µM.
The same measure for `COc1ccc(-n2ccc3c(=O)n(CC4(O)CCN(C(=O)C5CCCCC5c5nccn5C)CC4)cnc32)cc1` (single isomer, unassigned) [Example 69, 3-[[4-hydroxy-1-trans-2-(1-methylimidazol-2-yl)cyclohexanecarbonyl]-4-piperidyl]methyl-7-(4-methoxyphenyl)pyrrolo[2,3-d]pyrimidin-4-one]: 10.5 µM; for `NC(=O)CSCCC(=O)Nc1ccc2ncn(CC3(O)CCN(C(=O)[C@@H]4CCCC[C@H]4c4ccccc4)CC3)c(=O)c2n1` (relative stereo) [Example 108, 3-(2-amino-2-oxo-ethyl)sulfanyl-N-[3-[[4-hydroxy-1-(trans-2-phenylcyclohexanecarbonyl)-4-piperidyl]methyl]-4-oxo-pyrido[3,2-d]pyrimidin-6-yl]propanamide]: 0.0765 µM; for `COc1ccc(-n2ccc3c(=O)n(CC4(O)CCN(C(=O)[C@@H]5CCC(F)(F)C[C@H]5c5ccccc5)CC4)cnc32)cc1` (single isomer, unassigned) [Example 33, 3-[[1-(trans-4,4-difluoro-2-phenyl-cyclohexanecarbonyl)-4-hydroxy-4-piperidyl]methyl]-7-(4-methoxyphenyl)pyrrolo[2,3-d]pyrimidin-4-one]: 4.67 µM.
With `COc1ccc(-n2ccc3c(=O)n(CC4(O)CCN(C(=O)[C@@H]5C(C)=CCC[C@H]5c5cccs5)CC4)cnc32)cc1` (single isomer, unassigned) [Example 59, 3-[[4-hydroxy-1-[trans-2-methyl-6-(2-thienyl)cyclohex-2-ene-1-carbonyl]-4-piperidyl]methyl]-7-(4-methoxyphenyl)pyrrolo[2,3-d]pyrimidin-4-one], the IC50 amounted to 0.0652 µM.
For the compound `O=C(Cc1c[nH]c2ccc(O)cc12)Nc1ccc2ncn(CC3(O)CCN(C(=O)C4CCCCC4c4ccccc4)CC3)c(=O)c2n1` (stereo not drawn) [Example 105, 2-(5-hydroxy-1H-idol-3-yl)-N-[3-[[4-hydroxy-1-(trans-2-phenylcyclohexanecarbonyl)-4-piperidyl]methyl]-4-oxo-pyrido[3,2-d]pyrimidin-6-yl]acetamide], the half-maximal inhibitory concentration (IC50) was 0.0153 µM.
For `O=C([C@@H]1CCCC[C@H]1c1ccccc1)N1CCC(O)(Cn2cnc3c(ccn3Cc3cccnc3)c2=O)CC1` (relative stereo) [Example 109, 3-[[4-hydroxy-1-(trans-2-phenylcyclohexanecarbonyl)-4-piperidyl]methyl]-7-(3-pyridylmethyl)pyrrolo[2,3-d]pyrimidin-4-one] the value was 1.01 µM.
`O=C([C@@H]1CC(F)(F)CC[C@H]1c1ccccc1)N1CCC(O)(Cn2cnc3c(ccn3-c3ccccc3)c2=O)CC1` (single isomer, unassigned) [Example 31, 3-[[1-[trans-5,5-difluoro-2-phenyl-cyclohexanecarbonyl]-4-hydroxy-4-piperidyl]methyl]-7-phenyl-pyrrolo[2,3-d]pyrimidin-4-one] had a 50% inhibitory concentration (IC50) of 2.76 µM.
As to `Nc1ccc2ncn(CC3(O)CCN(C(=O)[C@@H]4CCCC[C@H]4c4ccccc4)CC3)c(=O)c2n1` (relative stereo) [Example 100, 6-amino-3-[[4-hydroxy-1-(trans-2-phenylcyclohexanecarbonyl)-4-piperidyl]methyl]pyrido[3,2-d]pyrimidin-4-one], the IC50 amounted to 0.226 µM.
